Data published in patent US20250002471A1 (Gilead Sciences, Inc., priority 2020, published 2025).
pEC50: −log10 of the molar value.

Experiments:
TLR7 = target: T1, TLR7 (Homo sapiens, UniProt Q9NYK1); assay: Human PBMC cell-based assay, TLR7 agonist GS-986 stimulation, cytokine (IL-6 and IFNα) readout; conditions: human PBMCs, GS-986 400 nM, 6 hours; Table 26; read-out: TLR-7 EC50
T1 construct: lymphocytes, monocytes and dendritic cells that express TLR7, TLR8 and TLR9; endogenous in cells; host or cells: human PBMCs from healthy donors
T1 sequence (Q9NYK1 27-1049): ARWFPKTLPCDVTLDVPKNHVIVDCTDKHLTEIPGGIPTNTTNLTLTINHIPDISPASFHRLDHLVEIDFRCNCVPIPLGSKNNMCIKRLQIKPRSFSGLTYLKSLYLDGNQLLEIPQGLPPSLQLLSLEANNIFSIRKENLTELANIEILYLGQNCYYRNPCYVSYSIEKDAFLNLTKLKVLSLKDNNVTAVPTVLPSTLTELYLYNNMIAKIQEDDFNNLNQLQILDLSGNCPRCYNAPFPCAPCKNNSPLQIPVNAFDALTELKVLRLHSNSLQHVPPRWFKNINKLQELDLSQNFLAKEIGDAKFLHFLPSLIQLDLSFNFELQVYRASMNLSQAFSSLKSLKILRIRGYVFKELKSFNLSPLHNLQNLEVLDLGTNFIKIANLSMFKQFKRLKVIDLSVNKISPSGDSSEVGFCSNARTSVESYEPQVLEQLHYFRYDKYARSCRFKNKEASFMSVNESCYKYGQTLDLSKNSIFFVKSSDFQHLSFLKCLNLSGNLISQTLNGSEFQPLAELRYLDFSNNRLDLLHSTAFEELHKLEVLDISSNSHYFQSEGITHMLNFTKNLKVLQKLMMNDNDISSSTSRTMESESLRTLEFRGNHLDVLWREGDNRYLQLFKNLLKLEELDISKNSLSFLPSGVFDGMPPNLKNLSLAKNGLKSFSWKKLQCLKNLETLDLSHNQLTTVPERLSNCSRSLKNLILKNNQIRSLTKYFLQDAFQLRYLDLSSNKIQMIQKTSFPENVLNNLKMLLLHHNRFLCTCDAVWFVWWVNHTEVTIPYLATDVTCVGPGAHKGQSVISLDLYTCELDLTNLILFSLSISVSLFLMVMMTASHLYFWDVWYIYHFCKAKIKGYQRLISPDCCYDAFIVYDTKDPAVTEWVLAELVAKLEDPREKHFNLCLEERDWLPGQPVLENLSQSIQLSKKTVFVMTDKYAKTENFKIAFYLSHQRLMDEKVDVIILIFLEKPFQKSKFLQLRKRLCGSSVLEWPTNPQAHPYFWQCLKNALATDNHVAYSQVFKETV
Text: (§1) Human peripheral blood mononuclear cells (PBMCs) consist of lymphocytes, monocytes and dendritic cells that express TLR7, TLR8 and TLR9. These cells respond to TLR7, TLR8 and TLR9 ligand stimulation and produce cytokines and chemokines in vitro and in vivo. Human PBMCs are therefore suitable to be used in a cell-based assay to assess the in vitro potency of a TLR 7, 8, and/or 9 antagonist. The result is expected to be more translatable to the pharmacodynamics response in vivo than cell line-based assays.
(§2) Cryopreserved human PBMCs from healthy donors were thawed and resuspended in RPMI-1640 media with L-glutamine (Corning) supplemented with 10% Fetal Bovine Serum (Hyclone) and 1X Penicillin-Streptomycin (Corning). After counting, the cell density was adjusted to 2 million cells/ml and incubated for 1 hour at 37° C., 5% CO2 for recovery. Following the recovery, the cells were plated by adding 50p per well (100,000 cells) to 384-well cell culture plates (Greiner) containing 250nl of test antagonists in 100% DMSO per well, in a 10 points dose response in quadruplicates. PBMCs were incubated in the presence of test antagonists for one hour at 37° C., 5% CO2 before being stimulated with a TLR7 or TLR9 agonist. GS-986 (Gilead Sciences) was used as the TLR7 agonist at a final concentration of 400 nM. ODN-2216 (InvivoGen) was used as the TLR9 agonist at a final concentration of 3μM. PBMCs were incubated in the presence of the test antagonist and the TLR7 (or TLR9) agonist for an additional 6 hours at 37° C., 5% CO2. At the end of the incubation, the cell culture plates were centrifuged at 500 g for 5 min, and the cell culture supernatant was collected. The level of cytokines (IL-6 and IFNα) in the supernatant was measured by electrochemiluminescence immunoassays (Mesoscale Discovery) following manufacturer's recommended protocols. The level of cytokine measured was plotted against the test antagonist concentration and fitted to a sigmoidal function to determine the EC50, which are shown below in Table 26.

TLR9 = target: T2, TLR9 (Homo sapiens, UniProt Q9NR96); assay: Human PBMC cell-based assay, TLR9 agonist ODN-2216 stimulation, cytokine (IL-6 and IFNα) readout; conditions: human PBMCs, ODN-2216 3 μM, 6 hours; Table 26; read-out: TLR-9 EC50
T2 construct: lymphocytes, monocytes and dendritic cells that express TLR7, TLR8 and TLR9; endogenous in cells; host or cells: human PBMCs from healthy donors
T2 sequence (Q9NR96 26-1032): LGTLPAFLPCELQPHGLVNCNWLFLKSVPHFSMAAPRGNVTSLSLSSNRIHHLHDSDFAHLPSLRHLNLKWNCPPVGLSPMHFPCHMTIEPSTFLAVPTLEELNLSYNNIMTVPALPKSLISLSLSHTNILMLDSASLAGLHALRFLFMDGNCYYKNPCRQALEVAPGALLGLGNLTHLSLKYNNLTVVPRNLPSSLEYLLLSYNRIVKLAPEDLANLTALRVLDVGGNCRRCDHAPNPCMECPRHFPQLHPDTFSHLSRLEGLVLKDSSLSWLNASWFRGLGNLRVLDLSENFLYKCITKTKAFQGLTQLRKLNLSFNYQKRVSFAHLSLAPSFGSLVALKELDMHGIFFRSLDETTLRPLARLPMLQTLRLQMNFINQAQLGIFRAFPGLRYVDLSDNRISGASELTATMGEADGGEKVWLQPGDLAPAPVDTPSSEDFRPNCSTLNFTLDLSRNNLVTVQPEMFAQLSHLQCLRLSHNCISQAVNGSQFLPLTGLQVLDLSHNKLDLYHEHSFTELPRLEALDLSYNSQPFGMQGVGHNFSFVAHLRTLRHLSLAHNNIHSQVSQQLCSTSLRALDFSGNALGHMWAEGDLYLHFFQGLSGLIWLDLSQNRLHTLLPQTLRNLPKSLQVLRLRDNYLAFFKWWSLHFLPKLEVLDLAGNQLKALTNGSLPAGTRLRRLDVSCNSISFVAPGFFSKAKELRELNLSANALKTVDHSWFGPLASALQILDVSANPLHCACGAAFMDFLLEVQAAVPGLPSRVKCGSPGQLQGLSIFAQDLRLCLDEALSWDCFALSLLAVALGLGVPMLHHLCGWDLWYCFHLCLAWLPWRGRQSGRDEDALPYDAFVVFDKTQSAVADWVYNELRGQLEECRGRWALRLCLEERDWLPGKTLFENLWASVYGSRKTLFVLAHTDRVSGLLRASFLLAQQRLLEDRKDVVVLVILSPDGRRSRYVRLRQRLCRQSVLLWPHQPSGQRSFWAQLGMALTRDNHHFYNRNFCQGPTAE
Text: as §1, §2

Compound | pEC50 (TLR7) | pEC50 (TLR9)
Cc1cc(-c2[nH]c3cc(-c4ccc(N5CCN(CC(F)F)CC5)nc4)ccc3c2C)cc(C)n1 [Example 141, 6-(6-(4-(2,2-difluoroethyl)piperazin-1-yl)pyridin-3-yl)-2-(2,6-dimethylpyridin-4-yl)-3-methyl-1H-indole] | < 6.00 | 6.92
2-(2,6-dimethylpyridin-4-yl)-3-methyl-6-(1′,2′,3′,6′-tetrahydro-[2,4′-bipyridin]-5-yl)-1H-indole [Example 133] | 7.61 | 7.30
Cc1cc(-c2[nH]c3cc(-c4ccc(C5=CCNCC5)nc4)ccc3c2C)cc(C)n1 [Example 132, 2-(2,6-dimethylpyridin-4-yl)-3-methyl-6-(1′,2′,3′,6′-tetrahydro-[2,4′-bipyridin]-5-yl)-1H-indole] | 8.29 | 7.97
Cc1cc(-c2[nH]c3cc(-c4ccc(N5CCN(CC(C)O)CC5)nc4)ccc3c2C)cc(C)n1 (stereo not drawn) [Example 118] | 8.24 | 7.23
Cc1cc(-c2[nH]c3cc(-c4ccc(C(=O)N5CCC(N)CC5)cc4)ccc3c2C)cc(C)n1 [Example 125] | 7.13 | 7.01
Cc1cc(-c2[nH]c3cc(-c4ccc(N)nc4)ccc3c2C)cc(C)n1 [Example 5] | 6.81 | 6.64
Cc1cc(-c2[nH]c3cc(-c4ccc(C5CCN(CCO)CC5)nc4)ccc3c2C)cc(C)n1 [Example 163] | 7.62 | 7.33
Cc1cc(-c2[nH]c3cc(-c4ccc(N5CCN(CC(C)(C)O)CC5)nc4)ccc3c2C)cc(C)n1 [Example 129, 1-(4-(5-(2-(2,6-dimethylpyridin-4-yl)-3-methyl-1H-indol-6-yl)pyridin-2-yl)piperazin-1-yl)-2-methylpropan-2-ol] | 7.84 | 7.61
Cc1cc(-c2[nH]c3cc(-c4ccc(N5CC6(CNCCO6)C5)nc4)ccc3c2C)cc(C)n1 [Example 29] | 7.50 | 6.91
Cc1cc(-c2[nH]c3cc(-c4ccc5cccnc5c4)ccc3c2C)cc(C)n1 [Example 47] | 6.19 | 6.40
COCCN1CCN(c2ccc(-c3ccc4c(C)c(-c5cc(C)nc(C)c5)[nH]c4c3)cn2)CC1 [Example 117] | 7.14 | 7.16
Cc1cc(-c2[nH]c3cc(-c4cn(C5CCNCC5)nc4C)ccc3c2C)cc(C)n1 [Example 11] | 6.46 | 6.64
Cc1cc(-c2[nH]c3cc(-c4cnc(N5CCNCC5)nc4)ccc3c2C)cc(C)n1 [Example 65] | 7.82 | 7.20
Cc1cc(-c2[nH]c3cc(-c4cnn(CC5CCNCC5)c4)ccc3c2C)cc(C)n1 [Example 183] | 6.49 | 6.11
CCc1c(-c2cc(C)nc(C)c2)[nH]c2cc(-c3ccc(N4CCNCC4)nc3)ccc12 [Example 70, 2-(2,6-dimethylpyridin-4-yl)-3-ethyl-6-(6-(piperazin-1-yl)pyridin-3-yl)-1H-indole] | 8.17 | 6.73
Cc1cc(-c2[nH]c3cc(-c4ccc5c(c4)CCNC5)ccc3c2C)cc(C)n1 [Example 13] | 6.99 | 7.71
Cc1c(-c2cc(C#N)c(=O)n(C)c2)[nH]c2cc(-c3ccc(N4CCNCC4)nc3)ccc12 [Example 93] | 6.69 | 6.04
Cc1cc(-c2[nH]c3cc(-c4cnc(N5CCNCC5)c(C)c4)ccc3c2C)cc(C)n1 [Example 3] | 7.64 | 7.25
Cc1cc(-c2[nH]c3cc(-c4ccc(N5CC[N+](CCN(C)C)(CCN(C)C)CC5)nc4)ccc3c2C)cc(C)n1 [Example 115, 1,1-bis(2-(dimethylamino)ethyl)-4-(5-(2-(2,6-dimethylpyridin-4-yl)-3-methyl-1H-indol-6-yl)pyridin-2-yl)piperazin-1-ium] | 6.41 | 6.72
Cc1cc(-c2[nH]c3cc(-c4ccc(N5CCNCC5)nc4)ccc3c2C)c(C)cn1 [Example 74] | 7.84 | 5.90
CC(=O)N1CCN(c2ccc(-c3ccc4c(C)c(-c5cc(C)nc(C)c5)[nH]c4c3)cn2)CC1 [Example 107] | 6.65 | 6.14
